From patent EP4744665A1, “COMBINATION OF POLQ INHIBITOR COMPOUND AND ANTI-CANCER THERAPEUTIC AGENT OR RADIOTHERAPY” (Simcere Zaiming Pharmaceutical Co., Ltd., priority 2023, dated 2025)

Key:
Assay in all cases: Combined use with irradiation (IR), Bliss Independence model (Cell Titer Glo, 7 days)
Format in all cases: cell-based
Conditions in all cases: combination with IR
[1] = test system: DLD-1
Method: (§1) DLD-1 colorectal adenocarcinoma cells, NUGC4 gastric cancer cells, NCI-H460 non-small cell lung cancer cells, SHP-77 small cell lung cancer cells, and LNCAP prostate cancer cells were cultured in a 1640 medium containing 10% fetal bovine serum. MDA-MB-436 breast cancer cells were cultured in a DMEM medium containing 10% fetal bovine serum. OVCAR3 ovarian cancer cells were cultured in a 1640 medium containing 20% fetal bovine serum and 10 µg/mL bovine insulin. The cells were all cultured at 37 °C with 5% CO2. Cells at the logarithmic growth phase were available for the experiment.
(§2) 100 µL of the cell medium was added to rows A and H and columns 1 and 12 of a 96-well cell culture plate. Cultured cells were resuspended (adherent cells were digested with trypsin) and counted to give information on cell density and viability. The dilution ratio of the resuspended cells required for inoculating a fixed number of cells into 90 µL of the medium in each culture well was calculated based on the cell density information. After the resuspended cells were diluted with the corresponding medium, 90 µL of the diluted cells were transferred to columns 2-11 of rows B-G of a 96-well cell culture plate using an Eppendorf multi-channel pipette (60 wells in total for each plate). The cell culture plate was incubated overnight in an incubator at 37 °C with 5% CO2.
(§3) The test compound was dissolved in DMSO to give a 10 mM stock solution for later use. In the experiment, the compound was further diluted to the corresponding concentration according to the concentration designed in the experiment, and based on this concentration, 4-fold serial gradient dilution was performed to give a total of 10 dose concentrations (the lowest dose was 0, and other specific concentration values were shown in FIG. 2). 10 µL of the diluted compound was added to the corresponding cell plate well, such that the final concentration of DMSO was 0.25%. The compound was incubated with the cells in an incubator at 37 °C with 5% CO2 for 4 h, and then the cell plate was transferred to Cellrad for irradiation (abbreviated as IR) at different doses (see FIG. 2 for specific dose values). After the irradiation was completed, the cell plate was incubated in an incubator at 37 °C with 5% CO2 for another 7 days, Cell Titer Glo was added at 50 µL/well, and the luminescence value of each well was read using an Envision microplate reader.
(§4) The luminescence value of the well containing only the cell medium was taken as the background (RLUbackground, corresponding cell survival rate to be 0%), the cell well containing only 0.25% DMSO without the compound and the irradiation treatment was taken as the maximum signal (RLUDMSO, corresponding cell survival rate to be 100%), and the luminescence values of the remaining wells containing cells and compounds at different concentrations were taken as RLUsample. The survival rate of each cell well was calculated as follows: Survival rate (%) = (RLUsample−RLUbackground)/(RLUDMSO−RLUbackground) × 100% [formula]
(§5) The interaction between the drug and irradiation (synergistic, independent, or antagonistic) was statistically analyzed by the Bliss Independence model using Combenefit software (Bliss, C.I., Bacteriol. Rev., 1956, 20, 243-258). The model assumes that the drug and irradiation act independently. The theoretical expected action curve of the combination was calculated from the following equation: Bliss effect = effect A + effect B−effect A × effect B [formula] wherein effect A is the effect of drug A at a particular concentration. Effect B is the effect of irradiation at a particular dose.
(§6) The Bliss effect is the expected effect when the combination of the drug and irradiation is administered precisely. A negative Bliss score (δ = observed effect - Bliss effect) indicates an antagonistic effect between the drug and irradiation if the observed effect (i.e., the experimentally measured combined effect) is less than the Bliss effect. […]

[2] = test system: LNCAP
Method: as §1, §2, §3, §4, §5, §6

[3] = test system: MDA-MB-436
Method: as §1, §2, §3, §4, §5, §6

[4] = test system: NCI-H460
Method: as §1, §2, §3, §4, §5, §6

[5] = test system: NUGC4
Method: as §1, §2, §3, §4, §5, §6

[6] = test system: OVCAR3
Method: as §1, §2, §3, §4, §5, §6

[7] = test system: SHP-77
Method: as §1, §2, §3, §4, §5, §6

Measured: Combined effect

COc1ccc(Cl)cc1-c1cc(C)ncc1C(=O)Nc1nc2ncc(-c3ccc(C#N)cc3)nc2s1.[Na] [Sodium salt of compound I, Sodium Salt of 4-(5-Chloro-2-methoxyphenyl)-N-[6-(4-cyanophenyl)thiazolo[4,5-b]pyrazin-2-yl]-6-methylnicotinamide]
Synergistic: all assays above
